Data taken from US20040235070A1, “Immune reactivity to expressed activated oncogenes for diagnosis and treatment of malignancy” (Washington Research Foundation, priority 1990, published 2004).

Legend:
[1] = tested on: bcr3-abl2 peptide-specific CD4^+ T cell clones; assay: Proliferative assay of bcr3-abl2 peptide-specific CD4+ T cell clones ([3H] thymidine incorporation); format: cell-based, BALB/c mice; settings: for [^3H] Thymidine Incorporation (c.p.m.): peptide 5 μg/ml, Table 2; for [^3H] Thymidine Incorporation (c.p.m.) / [^3H] Thymidine Incorporation (c.p.m.) after Stimulation with bcr-abl 12 peptide/proteins (μg/ml): 96-hour culture; for [^3H] Thymidine Incorporation (c.p.m.) after Stimulation with bcr3-abl2 peptide (5 μg/ml): peptides of varying lengths 5 μg/ml, 96 hour culture, Table 4; for [^3H] Thymidine Incorporation (c.p.m.) after Stimulation with bcr-abl 12 peptide/proteins (μg/ml): Table 5
Procedure: Mice (female BALB/c and C57BL/6 (B6), 6 to 8 weeks old; Jackson Laboratories, Bar Harbor, Me.) were inoculated twice at 2-week intervals by subcutaneous injection with Complete Freund's Adjuvant (Sigma Chemical Co., St. Louis, Mo.) alone or emulsified with bcr3-abl2 peptide (100 μg). Ten days after the final immunization, single cell suspensions of draining lymph nodes and spleens were prepared in medium consisting of 1:1 mixture of RPMI 1640 (Gibco Laboratories, Inc., Grand Island, N.Y.) and EHAA (Biofluids, Inc., Rockville, Md.) with 2.5×10^−5 M 2-ME, 200 U/ml penicillin, 200 U/ml streptomycin, 10 mM L-glutamine and 10% fetal calf serum. For proliferative assays, lymphocytes were cultured in 96-well plates at 2×10^5 cells per well with 4×10^5 irradiated syngeneic spleen cells (3,000 rad) and designated (total volume of 200 μl per well). Plates were incubated in a humidified atmosphere under 5% CO2 tension at 37° C. for 72 hours, and then pulsed for 18 hours with […] of [^3H]-thumidine per well. Proliferative responses of cloned T cells utilized 2×10^4 cells per well with 5×10^5 irradiated syngeneic spleen cells (3,000 rad) and designated peptide.
Lymphocytes from the draining lymph nodes of mice immunized with bcr3-abl2 peptide were cultured in 24-well culture plates at 4×10^6 cells per well with 2×10^6 irradiated syngeneic spleen cells and bcr3-abl2 peptide at 25 μg/ml (total volume 2 ml). The plates were cultured in a humidified atmosphere under 5% CO2 tension at 37° C. for 5 days then split 1:2. After 10 days, lymphocytes were restimulated at 1×10^6 lymphocytes per well in 24-well culture plates with 5×10^6 irradiated syngeneic spleen cells and peptide (25 μg/ml). Two days after the second in vitro stimulation, T cells were-plated at 0.5 cells per well in 96-well flat-bottom plates with 1×10^6 irradiated syngeneic spleen cells and rIL-2 (50 U/ml). Derived T cell clones were maintained by periodic stimulation with peptide (1 μg/ml) plus irradiated syngeneic spleen cells followed by expansion with rIL-2 (10 U/ml) every 2 weeks. T cell clones were stained with FITC-conjugated anti-Thy 1.2 (1%), or FITC-conjugated anti-Lyt2 (2%), or PE-conjugated anti-L3T4 (3%) mAbs (Becton Dickinson Immunocytochemistry Systems, Mountain View, Calif.) at 4° C. for 45 minutes.

[2] = tested on: spleen cells from mice immunized with p54-66[L61]; assay: Proliferative response of spleen cells from mice immunized with p54-66[L61] ras peptide; format: cell-based, C3H/HeN mice; settings: lymphocytes from mice immunized with p54-66[L61]; FIG. 4
Procedure: This peptide is denoted as p54-66[L61] or [L61]. C3H/HeN mice were immunized twice subcutaneously at two week intervals with Ribi adjuvant alone or adjuvant emulsified with p54-66[L61] ras peptide (100 μg). Two weeks after the final immunization, spleen cells from mice injected with adjuvant alone (open bar) or adjuvant plus p54-66[L61] ras peptide (black bar) were harvested and tested in vitro for proliferative response to the indicated p54-66 ras peptide (100 μg/ml). The peptide containing the substitution of lysine (K) for glutamine at position 61 is denoted as [K61]. The data represent the mean of triplicate determinations of the c.p.m. of incorporated ^3HTdR±S.D.

[3] = tested on: lymphocytes from mice immunized with the Arg-12 peptide; assay: Proliferation assay of lymph node lymphocytes from mice immunized with ras Arg-12 peptide; format: cell-based; settings: lymphocytes from C57BL/6 mice immunized with a single dose of Arg-12 peptide; FIG. 1
Procedure: FIG. 1 graphically illustrates that specific T cell responses to point-mutated ras peptide can be generated by in vivo priming on day 0 with 50 μg of a peptide of 12 amino acid length constructed identically to murine ras-p21 (amino acids 5-16) but with the substitution of arginine for the glycine normally found at position 12 (i.e., position 12 of ras-p21 but position 8 of the peptide). This peptide is denoted as ras p5-16[R12] or as ras-R12. Mice were immunized with ras-R12 peptide plus adjuvant or with adjuvant alone. […]
Lymphocytes obtained from immunized mice were suspended in culture medium (consisting of RPMI 1640 Gibco supplemented with 10% fetal calf serum, 2 mM L-glutamine, 100 U/ml streptomycin, 100 U/ml penicillin and 2.5×10^−5 M 2-mercaptoethanol) and were plated in 96-well flat bottom microtiter plates (Costar Co., Cambridge, Mass.) at 1×10^5 cells per well. […] Lymphocytes from individual wells were collected onto filter paper disks using a multi-channel harvester then transferred to scintillation fluid in individual counting tubes. β emission was measured using a Beckmann liquid scintillation spectrophotometer. […]

## A F H G D A Q A L Q R P V A (AFHGDAQALQRPVA) [BCRI-abl2, 14 mer of p185 bcr-abl joining region, reference compound]
[1]; T cell clone 1D2
  [^3H] Thymidine Incorporation (c.p.m.): 315 c.p.m.
[1]; T cell clone 2B12
  [^3H] Thymidine Incorporation (c.p.m.): 385 c.p.m.
[1]; T cell clone 2D4
  [^3H] Thymidine Incorporation (c.p.m.): 147 c.p.m.
[1]; T cell clone 2E3
  [^3H] Thymidine Incorporation (c.p.m.): 461 c.p.m.
[1]; T cell clone 2E10
  [^3H] Thymidine Incorporation (c.p.m.): 137 c.p.m.
[1]; T cell clone 3B7
  [^3H] Thymidine Incorporation (c.p.m.): 277 c.p.m.
[1]; T cell clone 3E11
  [^3H] Thymidine Incorporation (c.p.m.): 398 c.p.m.
[1]; T cell clone 3G2
  [^3H] Thymidine Incorporation (c.p.m.): 583 c.p.m.
[1]; T cell clone 3G3
  [^3H] Thymidine Incorporation (c.p.m.): 351 c.p.m.

## G F K Q S S K A L Q R P V A (GFKQSSKALQRPVA) [bcr3-abl2 14-mer peptide]
[1]; T cell clone 1D2
  [^3H] Thymidine Incorporation (c.p.m.) after Stimulation with bcr3-abl2 peptide (5 μg/ml): 238,297 c.p.m.
[1]; T cell clone 2E10, peptide/protein 0.04 μg/ml
  [^3H] Thymidine Incorporation (c.p.m.) after Stimulation with bcr-abl 12 peptide/proteins (μg/ml): 6,303 c.p.m.
[1]; T cell clone 2E10, peptide/protein 0.2 μg/ml
  [^3H] Thymidine Incorporation (c.p.m.) after Stimulation with bcr-abl 12 peptide/proteins (μg/ml): 54,896 c.p.m.
[1]; T cell clone 2E10, peptide/protein 1 μg/ml
  [^3H] Thymidine Incorporation (c.p.m.) after Stimulation with bcr-abl 12 peptide/proteins (μg/ml): 92,970 c.p.m.
[1]; T cell clone 2E10
  [^3H] Thymidine Incorporation (c.p.m.) after Stimulation with bcr3-abl2 peptide (5 μg/ml): 170,085 c.p.m.

## G F K Q S S K A L Q R P V A S D (GFKQSSKALQRPVASD) [bcr3-abl2 16-mer]
[1]; T cell clone 1D2
  [^3H] Thymidine Incorporation (c.p.m.) after Stimulation with bcr3-abl2 peptide (5 μg/ml): 108,309 c.p.m.
[1]; T cell clone 2E10
  [^3H] Thymidine Incorporation (c.p.m.) after Stimulation with bcr3-abl2 peptide (5 μg/ml): 139,083 c.p.m.

## Gln-61: p54-66 ras peptide with the normal glutamine at position 61 (DILDTAGQEEYSA; UniProt P01112 54-66, looked up, fragment)
[2]
  proliferation in vitro: not

## H S A T G F K Q S S K A L Q R P V A (HSATGFKQSSKALQRPVA) [bcr3-abl2 18-mer]
[1]; T cell clone 1D2
  [^3H] Thymidine Incorporation (c.p.m.) after Stimulation with bcr3-abl2 peptide (5 μg/ml): 150,309 c.p.m.
[1]; T cell clone 2E10
  [^3H] Thymidine Incorporation (c.p.m.) after Stimulation with bcr3-abl2 peptide (5 μg/ml): 224,674 c.p.m.

## I V H S A T G F K Q S S (IVHSATGFKQSS) [bcr3, reference compound]
[1]; T cell clone 1D2
  [^3H] Thymidine Incorporation (c.p.m.): 294 c.p.m.
[1]; T cell clone 2B12
  [^3H] Thymidine Incorporation (c.p.m.): 461 c.p.m.
[1]; T cell clone 2D4
  [^3H] Thymidine Incorporation (c.p.m.): 133 c.p.m.
[1]; T cell clone 2E3
  [^3H] Thymidine Incorporation (c.p.m.): 193 c.p.m.
[1]; T cell clone 2E10
  [^3H] Thymidine Incorporation (c.p.m.): 667 c.p.m.
[1]; T cell clone 3B7
  [^3H] Thymidine Incorporation (c.p.m.): 462 c.p.m.
[1]; T cell clone 3E11
  [^3H] Thymidine Incorporation (c.p.m.): 305 c.p.m.
[1]; T cell clone 3G2
  [^3H] Thymidine Incorporation (c.p.m.): 461 c.p.m.
[1]; T cell clone 3G3
  [^3H] Thymidine Incorporation (c.p.m.): 190 c.p.m.
[1]; proliferative assay with irradiated syngeneic APC
  response of bcr3-abl2 peptide-specific T cell clones (in words): failed to respond

## IVHSATGFKQSSKALQRPVASD (IVHSATGFKQSSKALQRPVASD) [bcr3-abl2 22-mer]
[1]; T cell clone 1D2
  [^3H] Thymidine Incorporation (c.p.m.) after Stimulation with bcr3-abl2 peptide (5 μg/ml): 21,208 c.p.m.
[1]; T cell clone 2E10
  [^3H] Thymidine Incorporation (c.p.m.) after Stimulation with bcr3-abl2 peptide (5 μg/ml): 29,509 c.p.m.

## KLVVVGARGVGK [Arg-12 peptide, residues 5-16 of ras p21 with arginine for glycine at position 12]
[3]
  proliferative response in vitro: proliferate specifically

## L T I N K E E A L Q R P (LTINKEEALQRP) [bcr2-abl2, 12 mer of p210 joining region, bcr exon 2 fused to c-abl exon 2, reference compound]
[1]; T cell clone 1D2
  [^3H] Thymidine Incorporation (c.p.m.): 274 c.p.m.
[1]; T cell clone 2B12
  [^3H] Thymidine Incorporation (c.p.m.): 341 c.p.m.
[1]; T cell clone 2D4
  [^3H] Thymidine Incorporation (c.p.m.): 143 c.p.m.
[1]; T cell clone 2E3
  [^3H] Thymidine Incorporation (c.p.m.): 402 c.p.m.
[1]; T cell clone 2E10
  [^3H] Thymidine Incorporation (c.p.m.): 287 c.p.m.
[1]; T cell clone 3B7
  [^3H] Thymidine Incorporation (c.p.m.): 349 c.p.m.
[1]; T cell clone 3E11
  [^3H] Thymidine Incorporation (c.p.m.): 299 c.p.m.
[1]; T cell clone 3G2
  [^3H] Thymidine Incorporation (c.p.m.): 478 c.p.m.
[1]; T cell clone 3G3
  [^3H] Thymidine Incorporation (c.p.m.): 217 c.p.m.

## Leu-61 peptide: 13 residues 54-66 of ras p21 with leucine for glutamine at position 61 (DILDTAGLEEYSA; UniProt P01112 54-66, looked up, fragment Q61L)
[2]
  proliferation in vitro: proliferate in vitro

## Lys-61: p54-66 ras peptide with lysine for glutamine at position 61 (DILDTAGKEEYSA; UniProt P01112 54-66, looked up, fragment Q61K)
[2]
  proliferation in vitro: not
